The values that follow come from patent US9073918B2, “Pyrazolo[4,3-b]pyridine-7-amine inhibitors of ALK5” (Takeda Pharmaceutical Company Limited, priority 2010, dated 2015).

The target in one test is T1, cellular TGF-β R1 ALK5 (Homo sapiens, UniProt P36897).
T1 construct: host or cells: CellSensor SBE-bla HEK 293T
T1 sequence (P36897 34-503): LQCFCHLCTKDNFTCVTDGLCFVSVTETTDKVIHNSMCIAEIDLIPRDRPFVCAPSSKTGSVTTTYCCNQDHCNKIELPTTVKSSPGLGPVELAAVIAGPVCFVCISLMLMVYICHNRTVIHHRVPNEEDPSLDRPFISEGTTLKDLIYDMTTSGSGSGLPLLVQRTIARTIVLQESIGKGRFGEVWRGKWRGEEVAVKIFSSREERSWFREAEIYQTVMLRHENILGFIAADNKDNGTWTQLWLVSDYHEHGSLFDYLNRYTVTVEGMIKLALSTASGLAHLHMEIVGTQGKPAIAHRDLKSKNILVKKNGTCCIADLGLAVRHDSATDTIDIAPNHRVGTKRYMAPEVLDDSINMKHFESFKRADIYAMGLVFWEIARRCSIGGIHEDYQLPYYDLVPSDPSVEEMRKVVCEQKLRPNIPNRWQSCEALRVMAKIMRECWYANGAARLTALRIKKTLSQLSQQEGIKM
In words: Cellular inhibition of ALK5 (CellSensor SBE-bla HEK 293T beta-lactamase reporter). The class given is cell-based. The conditions noted are these: cellular inhibition of ALK5, SBE-bla HEK 293T cells, TGFb-1 stimulated 5 hours; average where measured in multiple experiments. In a few lines:
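SBE-bla HEK 293T beta-lactamase reporter cells pre-incubated 1 h at 37 °C with 2.5-fold serially diluted compounds (0.5% DMSO), then stimulated 5 h with TGFb-1 (100 ng/mL stock).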

A further test concerns the target T2, TGF-β R1 ALK5 (Homo sapiens, UniProt P36897).
T2 construct: purchased Invitrogen PV5837
T2 sequence (P36897 34-503): T1 sequence (P36897 34-503)
In words: In vitro inhibition of ALK5 (LanthaScreen activity assay, TR-FRET). The class given is biochemical. (In TR-FRET formats the signal depends on donor and acceptor labels being close together.)

As for `Cc1ccc(F)c(-c2cc(Nc3ccnc4cn(CCC(C)(C)O)nc34)c(C)cn2)n1` [Example 120, 4-(7-(3′-fluoro-5,6′-dimethyl-2,2′-bipyridin-4-ylamino)-2H-pyrazolo[4,3-b]pyridin-2-yl)-2-methylbutan-2-ol], the IC50 on cellular TGF-β R1 ALK5 is 200 nM; against TGF-β R1 ALK5, 20 nM.
Take `Cc1ccc(F)c(-c2cc(Nc3ccnc4cnn(CC(=O)NC5CC5)c34)c(C)cn2)n1` [Example 117, N-cyclopropyl-2-(7-(3′-fluoro-5,6′-dimethyl-2,2′-bipyridin-4-ylamino)-1H-pyrazolo[4,3-b]pyridin-1-yl)acetamide]: the figures for the 50% inhibitory concentration (IC50) against cellular TGF-β R1 ALK5 and against TGF-β R1 ALK5 were 126 nM and 10 nM, respectively.
As to `Fc1ccc(Cl)cc1-c1cc(Nc2ccnc3cn(CC4CCNCC4)nc23)ccn1` [Example 27, N-(2-(5-chloro-2-fluorophenyl)pyridin-4-yl)-2-(piperidin-4-ylmethyl)-2H-pyrazolo[4,3-b]pyridin-7-amine], the figures for the concentration for half-maximal inhibition (IC50) on cellular TGF-β R1 ALK5 and against TGF-β R1 ALK5 were 1000 nM and 63.1 nM, respectively.
`COCCCn1ncc2nccc(Nc3ccnc(-c4cc(Cl)ccc4F)c3)c21` [Example 33, N-(2-(5-chloro-2-fluorophenyl)pyridin-4-yl)-1-(3-methoxypropyl)-1H-pyrazolo[4,3-b]pyridin-7-amine]: the IC50 against cellular TGF-β R1 ALK5 and against TGF-β R1 ALK5 was 200 nM each time.
Take `Cc1ccc(F)c(-c2cc(Nc3ccnc4cnn(C)c34)ccn2)n1` [Example 65, N-(3′-fluoro-6′-methyl-2,2′-bipyridin-4-yl)-1-methyl-1H-pyrazolo[4,3-b]pyridin-7-amine]: the 50% inhibitory concentration (IC50) on cellular TGF-β R1 ALK5 was 126 nM; against TGF-β R1 ALK5 it was 100 nM.
For `CCNC(=O)n1ncc2nccc(Nc3ccnc(-c4cc(Cl)ccc4F)c3)c21` [Example 29, 7-(2-(5-chloro-2-fluorophenyl)pyridin-4-ylamino)-N-ethyl-1H-pyrazolo[4,3-b]pyridine-1-carboxamide], in that order: 100 nM and 100 nM.
In the same order, the values of `CNC(=O)n1ncc2nccc(Nc3cc(-c4cc(Cl)ccc4F)ncc3C)c21` [Example 52, 7-(2-(5-chloro-2-fluorophenyl)-5-methylpyridin-4-ylamino)-N-methyl-1H-pyrazolo[4,3-b]pyridine-1-carboxamide] are 31.6 nM and 31.6 nM.
In the same order, the values of `CCn1cc2nccc(Nc3ccnc(-c4nc(C)ccc4F)c3)c2n1` [Example 125, 2-ethyl-N-(3′-fluoro-6′-methyl-2,2′-bipyridin-4-yl)-2H-pyrazolo[4,3-b]pyridin-7-amine] are 39.8 nM and 15.8 nM.
As for `CCNC(=O)Cn1ncc2nccc(Nc3cc(-c4nc(C)ccc4F)ncc3C)c21` [Example 153, N-ethyl-2-(7-(3′-fluoro-5,6′-dimethyl-2,2′-bipyridin-4-ylamino)-1H-pyrazolo[4,3-b]pyridin-1-yl)acetamide], the IC50 was 79.4 nM against cellular TGF-β R1 ALK5 and 7.94 nM at TGF-β R1 ALK5.
`Cc1ccc(F)c(-c2cc(Nc3ccnc4cn(C[C@@H](C)O)nc34)ccn2)n1` [Example 114, (R)-1-(7-(3′-fluoro-6′-methyl-2,2′-bipyridin-4-ylamino)-2H-pyrazolo[4,3-b]pyridin-2-yl)propan-2-ol]: the IC50 was 1260 nM against cellular TGF-β R1 ALK5 and 158 nM against TGF-β R1 ALK5.
For `Cc1ccc(F)c(-c2cc(Nc3c(F)cnc4cnn(C)c34)c(C)cn2)n1` [Example 132, 6-fluoro-N-(3′-fluoro-5,6′-dimethyl-2,2′-bipyridin-4-yl)-1-methyl-1H-pyrazolo[4,3-b]pyridin-7-amine], in that order: 126 nM and 63.1 nM.
In the case of `Cc1cnc(-c2cc(F)ccc2F)cc1Nc1ccnc2cnn(C(=O)NC(C)C)c12` [Example 110, 7-(2-(2,5-difluorophenyl)-5-methylpyridin-4-ylamino)-N-isopropyl-1H-pyrazolo[4,3-b]pyridine-1-carboxamide], the half-maximal inhibitory concentration (IC50) against cellular TGF-β R1 ALK5 was 158 nM; against TGF-β R1 ALK5, 5.01 nM.

The term IC50 denotes the concentration at which inhibition is half-maximal. Read a high IC50 as a need for much substance.
